“Also recorded” adds a separate entry of the source.
Tests used:
Type in all cases: biochemical
[1] = tested on: Cypridina luciferase (CLuc); experiment: Dual assay with or without 0.1% SDS, CLuc luminescence
Experimental: (§1) It is advantageous for simultaneous measurement of multiple biomarkers if a dual assay can be performed in the presence of two or more bioluminescent enzymes. With this point in mind, luminescence was measured in the presence of two bioluminescent enzymes (ALuc and CLuc) (FIG. 5). First, COS-7 cells were cultured in a 96-well plate, and a plasmid that expresses ALuc or CLuc was transfected into each cellular compartment by lipofection. Under the conditions, CLuc is secreted, but ALuc largely remains inside the cells because of the endoplasmic reticulum localization signal (KDEL) attached to the terminus. 16 hours later, 10 μL of the CLuc culture solution was mixed with 2 μL of ALuc lysate. Then, the luminescence intensity was compared between the cases where 0.1% SDS was added or not, After addition of the luminescent substrates specific to ALuc and CLuc, respectively.

[2] = tested on: ALuc; experiment: Dual assay with or without 0.1% SDS, ALuc luminescence; conditions: sulfate
Experimental: as §1

[3] = tested on: ALuc34; experiment: Relative luminescence intensity of lysates of COS-7 cells expressing ALuc34 after adding coelenterazine derivatives; conditions: for Ratios (A34/RLuc8.6-535): ALuc34 intensity over RLuc8.6-535 intensity, same substrate; for Luminescence intensity ALuc34 ave: COS-7 lysate 10 μL, LAS-4000; for substrate selectivity (RLuc8.6-535:ALuc, 1:x): luminescence intensity of ALuc compared with RLuc8.6-535, same substrate
Experimental: (§2) First, African monkey kidney-derived culture cells COS-7 were cultured in a 96-well plate until the culture area covered 90% of the lower area of the plate. At this stage, the plate wells growing cells were divided into two groups, and pcDNA3.1(+) vector, which expresses ALuc34 or RLuc8.6-535, was introduced into each group by the lipofection technique (TransIT-LT1), followed by further incubation for 16 hours. After incubation, the cells were lysed and an aliquot of the lysates (10 μL) is placed in a fresh 96-well plate. Different luminescent substrates were simultaneously added thereto using a multichannel pipette, and the relative luminescence intensity was immediately measured with a luminescence imaging analyzer LAS-4000 (FujiFilm). […] As used herein, “substrate selectivity” refers to a luminescence intensity of ALuc compared with the luminescence intensity of RLuc8.6-535 in the presence of the same luminescent substrate.

[4] = target: T1, RLuc8.6-535 (Renilla reniformis, UniProt P27652, A123S/A143M/A55T/C124A/D162E/I163L/K136R/M185L/M253L/S130A/S287L); conditions: COS-7 lysate 10 μL, LAS-4000
T1 construct: expressed in transfected cells; host or cells: COS-7 (African monkey kidney), lysate
T1 sequence (P27652 whole entry A55T/A123S/C124A/S130A/K136R/A143M/D162E/I163L/M185L/M253L/S287L): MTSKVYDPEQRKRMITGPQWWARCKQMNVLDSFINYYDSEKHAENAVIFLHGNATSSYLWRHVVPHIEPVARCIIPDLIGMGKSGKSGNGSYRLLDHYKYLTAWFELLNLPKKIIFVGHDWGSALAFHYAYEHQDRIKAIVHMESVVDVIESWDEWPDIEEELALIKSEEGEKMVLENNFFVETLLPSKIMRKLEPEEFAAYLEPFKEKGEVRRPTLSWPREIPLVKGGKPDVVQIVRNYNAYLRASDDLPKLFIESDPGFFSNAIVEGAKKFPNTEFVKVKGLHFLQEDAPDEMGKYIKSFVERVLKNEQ
Experimental: as §2

[5] = target: T1, RLuc8.6-535; conditions: 5 μL lysate + 30 μL substrate, AB-1850

Question: What does the source list for `CCCCCCCCCCCCOS(=O)(=O)[O-].[Na+]` [SDS, sodium dodecyl sulfate]?
Answer: effect on CLuc luminescence activity [1]: somewhat maintained luminescence activity; effect on ALuc luminescence activity [2]: substantially deactivated; also recorded: mostly quenched

Question: What does the source list for `O=c1c(Cc2ccc(I)cc2)nc2c(Cc3ccccc3)[nH]c(-c3ccc(O)cc3)cn1-2` [CTZ i, coelenterazine i]?
Answer: luminescence intensity with ALuc (in words) [3]: high luminescence intensity; Ratios (A34/RLuc8.6-535) [3]: 9398; luminescent substrate selectivity ([3]; ALuc versus RLuc8.6-535): about 10,000 fold; Luminescence intensity ALuc34 ave [3]: 913540 RLU/μg/sec/mm2; substrate selectivity (RLuc8.6-535:ALuc, 1:x) [3]: 9400; Luminescence intensity RLuc8.6-535 ave [4]: 97 RLU/μg/sec/mm2

Question: Which results are given for `O=c1c(Cc2ccccc2)nc2c(Cc3ccccc3)[nH]c(-c3ccc(O)cc3)cn1-2` [CTZ h, coelenterazine h]?
Answer: Spectrum peak RLuc8.6-535 [5]: 545 nm; luminescence intensity with ALuc (in words) [3]: strong luminescence; Ratios (A34/RLuc8.6-535) [3]: 91; Luminescence intensity ALuc34 ave [3]: 1168658 RLU/μg/sec/mm2; Luminescence intensity RLuc8.6-535 ave [4]: 12812 RLU/μg/sec/mm2

Question: What does the source list for `O=c1c(Cc2ccccc2)nc2c(Cc3ccccc3)[nH]c(-c3ccccc3)cn1-2` [CTZ 400, coelenterazine 400A]?
Answer: luminescence intensity with ALuc (in words) [3]: luminescence intensity was almost not observed at all; Ratios (A34/RLuc8.6-535) [3]: 3610; Luminescence intensity ALuc34 ave [3]: 11624 RLU/μg/sec/mm2; Luminescence intensity RLuc8.6-535 ave [4]: 3 RLU/μg/sec/mm2

Question: How did the “Spectrum peak RLuc8.6-535” value [5] turn out when `O=c1c(Cc2ccc(F)cc2)nc2c(Cc3ccccc3)[nH]c(-c3ccc(O)cc3)cn1-2` [CTZ f, coelenterazine f] was run?
Answer: 547 nm

Question: What about the “Ratios (A34/RLuc8.6-535)” value [3] of the same compound?
Answer: 134

Question: What about the “Luminescence intensity ALuc34 ave” value [3] of the same compound?
Answer: 956530 RLU/μg/sec/mm2

Question: And the “substrate selectivity (RLuc8.6-535:ALuc, 1:x)” value [3]?
Answer: 134

Question: And the “Luminescence intensity RLuc8.6-535 ave” value [4]?
Answer: 7151 RLU/μg/sec/mm2

Question: What does the source list for `Oc1ccc(Cc2nc3c(CC4CCCC4)nc(-c4ccc(O)cc4)cn3c2O)cc1` [CTZ op, coelenterazine cp, reference compound]?
Answer: Ratios (A34/RLuc8.6-535) [3]: 8; Luminescence intensity ALuc34 ave [3]: 40564 RLU/μg/sec/mm2; Luminescence intensity RLuc8.6-535 ave [4]: 5354 RLU/μg/sec/mm2

Question: `O=c1c(Cc2ccc3ccccc3c2)nc2c(Cc3ccccc3)[nH]c(-c3ccc(O)cc3)cn1-2` was tested. Which “Ratios (A34/RLuc8.6-535)” value [3] did it give?
Answer: 81

Question: And the “Luminescence intensity ALuc34 ave” value [3]?
Answer: 172323 RLU/μg/sec/mm2

Question: What about the “Luminescence intensity RLuc8.6-535 ave” value [4] of the same compound?
Answer: 2132 RLU/μg/sec/mm2

Question: `Oc1ccc(-c2cn3c(O)c(Cc4ccc(F)cc4)nc3c(CC3CCCC3)n2)cc1` [CTZ fcp, coelenterazine fcp, reference compound] was tested. Which “Ratios (A34/RLuc8.6-535)” value [3] did it give?
Answer: 3

Question: And the “Luminescence intensity ALuc34 ave” value [3]?
Answer: 3712 RLU/μg/sec/mm2

Question: What about the “Luminescence intensity RLuc8.6-535 ave” value [4] of the same compound?
Answer: 1217 RLU/μg/sec/mm2

Question: “coelenterazine ip [CTZ ip, reference compound]” was tested. Which “Spectrum peak RLuc8.6-535” value [5] did it give?
Answer: 535 nm

Question: What about the “Ratios (A34/RLuc8.6-535)” value [3] of the same compound?
Answer: 4

Question: What about the “Luminescence intensity ALuc34 ave” value [3] of the same compound?
Answer: 8379 RLU/μg/sec/mm2

Question: And the “Luminescence intensity RLuc8.6-535 ave” value [4]?
Answer: 2200 RLU/μg/sec/mm2

Question: `Oc1ccc(-c2cn3c(O)c(Cc4ccccc4)nc3c(CC3CCCC3)n2)cc1` [CTZ hcp, coelenterazine hcp, reference compound] was tested. Which “Ratios (A34/RLuc8.6-535)” value [3] did it give?
Answer: 3

Question: What about the “Luminescence intensity ALuc34 ave” value [3] of the same compound?
Answer: 5191 RLU/μg/sec/mm2

Question: What about the “Luminescence intensity RLuc8.6-535 ave” value [4] of the same compound?
Answer: 2058 RLU/μg/sec/mm2
